Patent US8735609B2, “Bryostatin analogues, synthetic methods and uses” (The Board of Trustees of the Leland Stanford Junior …, priority 2007, dated 2014)

Key:
NCI/ADR-RES = type: cell-based, human; details: Homo sapiens, Breast, read-out: Growth inhibition (GI50) (converted)
CAKI-1 = test: NCI human cancer cell line growth inhibition: CAKI-1 (Renal); type: cell-based; details: Homo sapiens
RPMI-8226 = test: NCI human cancer cell line growth inhibition: RPMI-8226 (Leukemia); type: cell-based; details: Homo sapiens
CCRF-CEM = test: NCI human cancer cell line growth inhibition: CCRF-CEM (Leukemia); type: cell-based; details: Homo sapiens
HL-60(TB) = test: cells; type: cell-based, human; details: Homo sapiens, HL-60, read-out: Growth inhibition (GI50)
UACC-62 = test: NCI human cancer cell line growth inhibition: UACC-62 (Melanoma); type: cell-based; details: Homo sapiens
MDA-MB-231/ATCC = test: NCI human cancer cell line growth inhibition: MDA-MB-231/ATCC (Breast); type: cell-based; details: Homo sapiens
HT29 = test: NCI human cancer cell line growth inhibition: HT29 (Colon); type: cell-based; details: Homo sapiens, HT-29
MCF7 = test: NCI human cancer cell line growth inhibition: MCF7 (Breast); type: cell-based; details: Homo sapiens
OVCAR-5 = test: NCI human cancer cell line growth inhibition: OVCAR-5 (Ovarian); type: cell-based; details: Homo sapiens
SR = test: NCI human cancer cell line growth inhibition: SR (Leukemia); type: cell-based; details: Homo sapiens
SW-620 = test: NCI human cancer cell line growth inhibition: SW-620 (Colon); type: cell-based; details: Homo sapiens
SF-539 = test: NCI human cancer cell line growth inhibition: SF-539 (CNS); type: cell-based; details: Homo sapiens
OVCAR-3 = test: NCI human cancer cell line growth inhibition: OVCAR-3 (Ovarian); type: cell-based; details: Homo sapiens
SF-295 = test: NCI human cancer cell line growth inhibition: SF-295 (CNS); type: cell-based; details: Homo sapiens
786-0 = test: NCI human cancer cell line growth inhibition: 786-0 (Renal); type: cell-based; details: Homo sapiens
SK-MEL-28 = test: NCI human cancer cell line growth inhibition: SK-MEL-28 (Melanoma); type: cell-based; details: Homo sapiens
P388 cell line = test: P388 murine lymphocytic leukemia cell assay; type: cell-based
Protocol: Cells from a P388 cell line (CellGate, Inc., Sunnyvale, Calif.) are grown in RPMI 1640 cell medium containing fetal calf serum (10%), L-glutamine, penicillin, streptomycin and are split twice weekly. All compounds are first diluted with DMSO. Later serial dilutions are done with a phosphate buffer solution (HYQ DPBS modified phosphate buffered saline). All dilutions are done in glass vials and the final DMSO concentration is always below 0.5% by volume. Final two-fold dilutions are done in a 96 well plate using cell media so that each well contains 50 μL. All compounds are assayed in quadruplicate over 12 concentrations. Cell concentration is measured using a hemacytometer and the final cell concentration is adjusted to 1×10^4 cells/mL with cell medium. The resulting solution of cells (50 μL) is then added to each well and the plates are incubated for 5 days in a 37° C., 5% CO2, humidified incubator (Sanyo CO2 incubator). MTT solution (3-[4,5-dimethylthiazol-2-yl]-2,5-diphenyltetrazolium bromide, 10 μL) is then added to each well and the plates are re-incubated under identical conditions for 2 h. To each well is then added acidified isopropanol (150 μL of i-PrOH solution containing 0.05 N HCl) and mixed thoroughly. The plates are then scanned at 595 nm and the absorbances are read (Wallac Victor 1420 Multilabel Counter). The resulting data is then analyzed to determine an ED50 value using the Prism software package (GraphPad).

MOLT-4 = test: NCI human cancer cell line growth inhibition: MOLT-4 (Leukemia); type: cell-based; details: Homo sapiens
SK-OV-3 = test: NCI human cancer cell line growth inhibition: SK-OV-3 (Ovarian); type: cell-based; details: Homo sapiens
HOP-92 = test: NCI human cancer cell line growth inhibition: HOP-92 (NSC Lung); type: cell-based; details: Homo sapiens
HCC-2998 = test: NCI human cancer cell line growth inhibition: HCC-2998 (Colon); type: cell-based; details: Homo sapiens
SNB-19 = test: NCI human cancer cell line growth inhibition: SNB-19 (CNS); type: cell-based; details: Homo sapiens
EKVX = test: NCI human cancer cell line growth inhibition: EKVX (NSC Lung); type: cell-based; details: Homo sapiens
HS 578T = test: NCI human cancer cell line growth inhibition: HS 578T (Breast); type: cell-based; details: Homo sapiens
U251 = test: NCI human cancer cell line growth inhibition: U251 (CNS); type: cell-based; details: Homo sapiens, U-251
UO-31 = test: NCI human cancer cell line growth inhibition: UO-31 (Renal); type: cell-based; details: Homo sapiens
BT-549 = test: NCI human cancer cell line growth inhibition: BT-549 (Breast); type: cell-based; details: Homo sapiens
MDA-MB-435 = test: NCI human cancer cell line growth inhibition: MDA-MB-435 (Breast); type: cell-based; details: Homo sapiens
SNB-75 = test: NCI human cancer cell line growth inhibition: SNB-75 (CNS); type: cell-based; details: Homo sapiens
SF-268 = test: NCI human cancer cell line growth inhibition: SF-268 (CNS); type: cell-based; details: Homo sapiens
HCT-15 = test: NCI human cancer cell line growth inhibition: HCT-15 (Colon); type: cell-based; details: Homo sapiens
SK-MEL-5 = test: NCI human cancer cell line growth inhibition: SK-MEL-5 (Melanoma); type: cell-based; details: Homo sapiens
SN12C = test: NCI human cancer cell line growth inhibition: SN12C (Renal); type: cell-based; details: Homo sapiens
IGROVI = test: NCI human cancer cell line growth inhibition: IGROVI (Ovarian); type: cell-based; details: Homo sapiens
TK-10 = test: NCI human cancer cell line growth inhibition: TK-10 (Renal); type: cell-based; details: Homo sapiens
HOP-62 = test: NCI human cancer cell line growth inhibition: HOP-62 (NSC Lung); type: cell-based; details: Homo sapiens
A498 = test: NCI human cancer cell line growth inhibition: A498 (Renal); type: cell-based; details: Homo sapiens
T-47D = test: NCI human cancer cell line growth inhibition: T-47D (Breast); type: cell-based; details: Homo sapiens, T47D
[1] = test system: NCI human cancer cell-lines; test: In vitro inhibition of growth in NCI human cancer cell lines (panel); type: cell-based
UACC-257 = test: NCI human cancer cell line growth inhibition: UACC-257 (Melanoma); type: cell-based; details: Homo sapiens
A549/ATCC = test: NCI human cancer cell line growth inhibition: A549/ATCC (NSC Lung); type: cell-based; details: Homo sapiens
KM12 = test: NCI human cancer cell line growth inhibition: KM12 (Colon); type: cell-based; details: Homo sapiens
HCT-116 = test: NCI human cancer cell line growth inhibition: HCT-116 (Colon); type: cell-based; details: Homo sapiens

Work on CCCCCCCC(=O)O[C@H]1/C(=C/C(=O)OC)C[C@H]2C[C@H](CO)OC(=O)C[C@H](O)C[C@@H]3CCC[C@H](C[C@@H]4CCO[C@H](/C=C/C(C)(C)[C@]1(O)O2)O4)O3 [Formula IIa (702.1)] yielded a GI50 (NCI/ADR-RES) of 18.2 µM, a GI50 (CAKI-1) of 2 µM and a GI50 (RPMI-8226) of 1.51 µM. It also gave a GI50 (CCRF-CEM) of 1.55 µM, a GI50 (HL-60(TB)) of 1.45 µM and a GI50 (UACC-62) of 7.76 µM. It also gave a GI50 (MDA-MB-231/ATCC) of 2.04 µM, a GI50 (HT29) of 2.82 µM and a GI50 (MCF7) of 3.98 µM. For the same molecule, the GI50 (OVCAR-5) was 5.25 µM, the GI50 (SR) was 7.94 µM and the GI50 (SW-620) was 7.59 µM. It also gave a GI50 (SF-539) of 1.7 µM, a GI50 (OVCAR-3) of 14.8 µM and a GI50 (SF-295) of 0.891 µM. For the same molecule, the GI50 (786-0) was 3.47 µM, the GI50 (SK-MEL-28) was 21.4 µM and the “activity in P388 assay compared with the corresponding C26 methyl-containing analogue” value (P388 cell line) was “significantly higher activity”. It also gave an EC50 (P388 cell line; Mus musculus, P388, 120 h, read-out: P388 Assay ED50) of 0.017 µM, a GI50 (MOLT-4) of under 0.01 µM and a GI50 (SK-OV-3) of 50.1 µM. For the same molecule, the GI50 (HOP-92) was 21.4 µM, the GI50 (HCC-2998) was 0.0288 µM and the GI50 (SNB-19) was 6.31 µM. For the same molecule, the GI50 (EKVX) was 2.63 µM, the GI50 (HS 578T) was 6.61 µM and the GI50 (U251) was 3.98 µM. The GI50 (UO-31) was 14.1 µM, the GI50 (BT-549) was 19.5 µM and the GI50 (MDA-MB-435) was 0.0219 µM. It also gave a GI50 (SNB-75) of 10.7 µM, a GI50 (SF-268) of 10.7 µM and a GI50 (HCT-15) of 17.4 µM. The GI50 (SK-MEL-5) was 0.372 µM, the GI50 (SN12C) was 2.57 µM and the GI50 (IGROVI) was 13.2 µM. It also gave a GI50 (TK-10) of 0.0933 µM, a GI50 (HOP-62) of 16.2 µM and a GI50 (A498) of 0.417 µM. For the same molecule, the GI50 (T-47D) was 9.55 µM, the “more active than bryostatin-1” value ([1]; K-562, MOLT-4, NCI-H460, HCC-2998, TK-10, MDA-MB-435) was “more than 2 orders of magnitude” and the “potency compared with bryostatin-1, on average” value ([1]; all cell groups tested) was “at least as potent, on average, as bryostatin-1”. The GI50 (UACC-257) was 7.41 µM, the GI50 (A549/ATCC) was 0.24 µM and the GI50 (KM12) was 4.57 µM. The GI50 (HCT-116) was 4.79 µM.
